pIC50: −log10 of the molar value. Activity calls are given as the source filed them. The rule behind the calls is not given here.
Columns and labels:
[1] = Neurotoxicity against mouse HT-22 cells incubated for 24 hrs by MTT assay; format: toxicity, cell-based; details: read-out: LD50
Mus musculus [2] = assay: Antialzheimer activity against amyloid beta (1 to 42)-induced mouse model of cognitive dysfunction assessed as reaching target platform at 15 mg/kg, po measured for 14 days by Morris Water maze method; format: functional, organism-based; details: ICR, time 14.0 day
[3] = biological target: Acetylcholinesterase (Electrophorus electricus) (UniProt O42275); assay: Inhibition of electric eel AchE using acetylthiocholine iodide as substrate at <10 uM measured for 3 mins by Ellman's method relative to control
[4] = Neurotoxicity against human SH-SY5Y cells assessed as survival rate incubated for 24 hrs by MTT assay relative to control; format: toxicity, cell-based; set-up: concentration or dose not given beside the values; details: read-out: Survival
[5] = Acute toxicity in fasted ICR mouse assessed as change in animal growth at 1 g/kg, po administered on day 1 followed by food supply after 2 hrs post compound administration measured after few days after first day administration; format: organism-based; details: in vivo, 1000 mg/kg
Cholinesterase [6] = biological target: Cholinesterase (Equus caballus, UniProt P81908); assay: Inhibition of horse serum BuChE using butyrylthiocholine iodide as substrate measured for 3 mins by Ellman's method; format: cell-free
[7] = Acute toxicity in fasted ICR mouse assessed as obvious toxicity at 1 g/kg, po followed by food supply after 2 hrs post compound administration measured for 14 days; format: organism-based; details: in vivo, 1000 mg/kg, 336 h, time 14 day
[8] = Effective permeability of compound at 25 ug/ml incubated for 18 hrs by PAMPA-BBB assay; format: ADME; details: dose 25 µg/ml, read-out: Peff
[9] = biological target: Cholinesterase (Equus caballus) (UniProt P81908); assay: Inhibition of horse serum BuChE using butyrylthiocholine iodide as substrate at <10 uM measured for 3 mins by Ellman's method relative to control; format: cell-free
Cholinesterase [10] = biological target: T1, Cholinesterase (Homo sapiens, UniProt P06276); assay: Inhibition of human BChE using butyrylthiocholine iodide as substrate measured for 3 mins by Ellman's method
Mus musculus [11] = assay: Antialzheimer activity against amyloid beta (1 to 42)-induced mouse model of cognitive dysfunction assessed as latency time at 15 mg/kg, po measured for 14 days by Morris Water maze method; format: functional, ICR; details: time 14 day
Cholinesterase [12] = biological target: T1, Cholinesterase; assay: Non-competitive inhibition of BChE (unknown origin) using butyrylthiocholine iodide as substrate upto 400 nM measured for 5 mins by Lineweaver-Burk plot analysis
[13] = Neurotoxicity against mouse BV-2 cells incubated for 24 hrs by MTT assay; format: toxicity, cell-based; details: read-out: LD50
[14] = Acute toxicity in fasted ICR mouse assessed as animal death at 1 g/kg, po followed by food supply after 2 hrs post compound administration measured for 14 days; format: organism-based; details: in vivo, 1000 mg/kg, 336 h, time 14 day
SH-SY5Y = assay: Neuroprotective activity against amyloid beta (1 to 42)-induced injury in human SH-SY5Y cells assessed as cell viability by MTT assay; format: functional, cell-based; details: dose 0.5-50 µM
[15] = Neurotoxicity against rat PC12 cells incubated for 24 hrs by MTT assay; format: toxicity, cell-based, PC-12; details: read-out: LD50

T1 sequence (P06276 whole entry): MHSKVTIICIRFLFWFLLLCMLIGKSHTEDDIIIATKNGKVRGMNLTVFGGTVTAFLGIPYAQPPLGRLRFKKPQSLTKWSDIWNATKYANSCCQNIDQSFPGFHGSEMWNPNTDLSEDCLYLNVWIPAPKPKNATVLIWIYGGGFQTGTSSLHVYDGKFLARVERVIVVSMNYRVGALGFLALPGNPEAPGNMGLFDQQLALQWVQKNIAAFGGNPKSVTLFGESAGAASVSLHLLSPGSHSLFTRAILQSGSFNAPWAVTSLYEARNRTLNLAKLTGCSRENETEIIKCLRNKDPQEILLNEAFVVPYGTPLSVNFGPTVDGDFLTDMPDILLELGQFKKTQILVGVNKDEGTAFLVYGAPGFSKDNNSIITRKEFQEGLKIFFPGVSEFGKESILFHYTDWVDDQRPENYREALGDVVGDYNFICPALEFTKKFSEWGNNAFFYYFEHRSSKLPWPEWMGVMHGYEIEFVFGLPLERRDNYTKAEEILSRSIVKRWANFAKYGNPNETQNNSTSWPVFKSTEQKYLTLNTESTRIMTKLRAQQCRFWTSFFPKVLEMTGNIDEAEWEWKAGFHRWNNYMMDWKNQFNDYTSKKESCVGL
Chain of Cholinesterase (Equus caballus, UniProt P81908) (P81908 whole entry): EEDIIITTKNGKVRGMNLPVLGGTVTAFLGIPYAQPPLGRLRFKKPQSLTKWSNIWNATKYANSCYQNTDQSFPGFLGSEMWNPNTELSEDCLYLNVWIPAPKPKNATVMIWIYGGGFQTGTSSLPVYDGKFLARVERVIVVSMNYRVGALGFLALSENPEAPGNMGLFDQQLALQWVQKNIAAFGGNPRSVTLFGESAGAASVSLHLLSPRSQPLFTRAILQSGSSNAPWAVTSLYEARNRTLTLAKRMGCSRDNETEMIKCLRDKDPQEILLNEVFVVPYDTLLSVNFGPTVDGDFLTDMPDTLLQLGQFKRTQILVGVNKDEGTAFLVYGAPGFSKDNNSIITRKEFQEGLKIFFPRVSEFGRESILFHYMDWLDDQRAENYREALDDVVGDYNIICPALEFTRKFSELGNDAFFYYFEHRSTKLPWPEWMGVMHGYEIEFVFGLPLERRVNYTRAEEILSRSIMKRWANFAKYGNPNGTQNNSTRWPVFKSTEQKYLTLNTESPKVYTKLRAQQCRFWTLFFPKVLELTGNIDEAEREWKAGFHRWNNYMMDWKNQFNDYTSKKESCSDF
Chain of Cholinesterase (Equus caballus) (P81908 whole entry): as above
Chain of Acetylcholinesterase (Electrophorus electricus) (O42275 24-633 limits assumed): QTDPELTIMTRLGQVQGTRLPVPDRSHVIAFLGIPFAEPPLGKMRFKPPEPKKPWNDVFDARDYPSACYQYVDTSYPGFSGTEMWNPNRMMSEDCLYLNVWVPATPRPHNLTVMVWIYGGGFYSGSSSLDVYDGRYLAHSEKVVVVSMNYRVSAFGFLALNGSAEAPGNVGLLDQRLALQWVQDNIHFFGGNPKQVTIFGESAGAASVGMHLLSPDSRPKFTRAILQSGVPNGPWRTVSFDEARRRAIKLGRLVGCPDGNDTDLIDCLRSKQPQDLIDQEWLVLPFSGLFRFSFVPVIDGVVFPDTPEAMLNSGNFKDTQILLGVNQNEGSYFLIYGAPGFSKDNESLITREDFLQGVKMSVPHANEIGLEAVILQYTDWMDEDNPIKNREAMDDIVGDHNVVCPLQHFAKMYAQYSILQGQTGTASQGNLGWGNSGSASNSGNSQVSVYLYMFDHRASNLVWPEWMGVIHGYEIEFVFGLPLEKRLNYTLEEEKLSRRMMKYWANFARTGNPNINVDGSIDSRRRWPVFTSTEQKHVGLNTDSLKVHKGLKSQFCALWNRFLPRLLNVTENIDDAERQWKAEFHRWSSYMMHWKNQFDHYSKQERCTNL

Structure (SMILES): Cc1ccccc1NC(=O)CN(Cc1ccc2ccccc2c1)CC(C)C
- CC50 at 24 h [1]: 18.9 µM
- Activity (Mus musculus [2]): Active
- inhibition [3]: 22.2%
- viability at 24 h [4]: 47.8%
- Activity [5]: Toxic
- pIC50 (Cholinesterase [6]): 6.66
- Activity [7]: Non-Toxic
- Papp at 18 h, 25 ug/ml [8]: 13.1 ×10⁻⁶ cm/s
- inhibition [9]: 94.3%
- pIC50 (Cholinesterase [10]): 7.80
- Time (Mus musculus [11]): 11.4 s
- inhibition (Cholinesterase [12]): Active
- CC50 at 24 h [13]: 39.3 µM
- Activity [14]: Non-Toxic
- Activity (SH-SY5Y): Dose-Dependent Effect
- CC50 at 24 h [15]: 78.8 µM

Source: ChEMBL document CHEMBL5352417, “Design, synthesis, and biological evaluation of aromatic tertiary amine derivatives as selective butyrylcholinesterase inhibitors for the treatment of Alzheimer's disease” (Eur J Med Chem, 2022)
